According to US20240300932A1, “N-PHENYLIMINE DERIVATIVE AND PREPARATION METHOD AND USE THEREOF” (Guizhou University, priority 2023, published 2024):

Tests used:
Assay in all cases: Post-emergence herbicidal activity test (stem and leaf spray, pot culture)
Type in all cases: in vivo
Conditions in all cases: 3 weeks after spraying
Abutilon theophrasti = test system: Abutilon theophrasti
Summary of the method: (§1)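 Graded 0–5 on fresh-weight growth control rate 3 weeks after a single spray-tower application at 10, 5 or 2.5 g/mu. Compounds in acetone with Tween 80 and methyl oleate synergist (1.5 liters/ha), applied to greenhouse weeds at 2- to 3-leaf stage.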

Amaranthus retroflexus = test system: Amaranthus retroflexus
Summary of the method: as §1

Echinochloa crusgalli = test system: Echinochloa crusgalli
Summary of the method: as §1

Portulaca oleracea = test system: Portulaca oleracea
Summary of the method: as §1

Setaria viridis = test system: Setaria viridis
Summary of the method: as §1

Trifoliumre pensL. = test system: Trifoliumre pensL.
Summary of the method: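 Pot-grown weeds in loam (pH 7), greenhouse at 20–30 °C, sprayed once post-emergence at the 2–3-leaf stage. Compound in acetone with Tween 80 plus methyl oleate oil (1.5 L/ha), applied at 10, 5 and 2.5 g/mu by spray tower. Effect scored 3 weeks after spraying, averaged over three repeats.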

| SMILES | Post-emergence herbicidal activity, A. theophrasti (grade) (Abutilon theophrasti; dosage 2.5 g/mu) | Post-emergence herbicidal activity, A. theophrasti (grade) (Abutilon theophrasti; dosage 5 g/mu) | Post-emergence herbicidal activity, A. theophrasti (grade) (Abutilon theophrasti; dosage 10 g/mu) | Post-emergence herbicidal activity, A. retroflexus (grade) (Amaranthus retroflexus; dosage 2.5 g/mu) | Post-emergence herbicidal activity, A. retroflexus (grade) (Amaranthus retroflexus; dosage 5 g/mu) | Post-emergence herbicidal activity, A. retroflexus (grade) (Amaranthus retroflexus; dosage 10 g/mu) | Post-emergence herbicidal activity, E. crusgalli (grade) (Echinochloa crusgalli; dosage 2.5 g/mu) | Post-emergence herbicidal activity, E. crusgalli (grade) (Echinochloa crusgalli; dosage 5 g/mu) | Post-emergence herbicidal activity, E. crusgalli (grade) (Echinochloa crusgalli; dosage 10 g/mu) | Post-emergence herbicidal activity, P. oleracea (grade) (Portulaca oleracea; dosage 2.5 g/mu) | Post-emergence herbicidal activity, P. oleracea (grade) (Portulaca oleracea; dosage 5 g/mu) | Post-emergence herbicidal activity, P. oleracea (grade) (Portulaca oleracea; dosage 10 g/mu) | Post-emergence herbicidal activity, S. viridis (grade) (Setaria viridis; dosage 2.5 g/mu) | Post-emergence herbicidal activity, S. viridis (grade) (Setaria viridis; dosage 5 g/mu) | Post-emergence herbicidal activity, S. viridis (grade) (Setaria viridis; dosage 10 g/mu) | Post-emergence herbicidal activity, Trifoliumre pensL. (grade) (Trifoliumre pensL.; dosage 2.5 g/mu) | Post-emergence herbicidal activity, Trifoliumre pensL. (grade) (Trifoliumre pensL.; dosage 5 g/mu) | Post-emergence herbicidal activity, Trifoliumre pensL. (grade) (Trifoliumre pensL.; dosage 10 g/mu) |
| --- | --- | --- | --- | --- | --- | --- | --- | --- | --- | --- | --- | --- | --- | --- | --- | --- | --- | --- |
| O=C1C2=C(CCCC2)C(=O)N1c1cc(OCc2nnc(-c3cccc([N+](=O)[O-])c3)o2)c(Cl)cc1F [Compound B12] | 5 (Grade 5: the growth control rate is greater than or equal to 85%) | 5 (Grade 5: the growth control rate is greater than or equal to 85%) | 5 (Grade 5: the growth control rate is greater than or equal to 85%) | 5 (Grade 5: the growth control rate is greater than or equal to 85%) | 5 (Grade 5: the growth control rate is greater than or equal to 85%) | 5 (Grade 5: the growth control rate is greater than or equal to 85%) | 1 (Grade 1: the growth control rate is greater than or equal to 5% and less than 20%) | 2 (Grade 2: the growth control rate is greater than or equal to 20% and less than 40%) | 3 (Grade 3: the growth control rate is greater than or equal to 40% and less than 60%) | 5 (Grade 5: the growth control rate is greater than or equal to 85%) | 5 (Grade 5: the growth control rate is greater than or equal to 85%) | 5 (Grade 5: the growth control rate is greater than or equal to 85%) | 2 (Grade 2: the growth control rate is greater than or equal to 20% and less than 40%) | 3 (Grade 3: the growth control rate is greater than or equal to 40% and less than 60%) | 4 (Grade 4: the growth control rate is greater than or equal to 60% and less than 85%) | 5 (Grade 5: the growth control rate is greater than or equal to 85%) | 5 (Grade 5: the growth control rate is greater than or equal to 85%) | 5 (Grade 5: the growth control rate is greater than or equal to 85%) |
| O=C1C2=C(CCCC2)C(=O)N1c1cc(OCc2nnc(-c3ccc(F)cc3)o2)c(Cl)cc1F [Compound B14] | 4 (Grade 4: the growth control rate is greater than or equal to 60% and less than 85%) | 5 (Grade 5: the growth control rate is greater than or equal to 85%) | 5 (Grade 5: the growth control rate is greater than or equal to 85%) | 5 (Grade 5: the growth control rate is greater than or equal to 85%) | 5 (Grade 5: the growth control rate is greater than or equal to 85%) | 5 (Grade 5: the growth control rate is greater than or equal to 85%) | 1 (Grade 1: the growth control rate is greater than or equal to 5% and less than 20%) | 2 (Grade 2: the growth control rate is greater than or equal to 20% and less than 40%) | 3 (Grade 3: the growth control rate is greater than or equal to 40% and less than 60%) | 4 (Grade 4: the growth control rate is greater than or equal to 60% and less than 85%) | 5 (Grade 5: the growth control rate is greater than or equal to 85%) | 5 (Grade 5: the growth control rate is greater than or equal to 85%) | 2 (Grade 2: the growth control rate is greater than or equal to 20% and less than 40%) | 3 (Grade 3: the growth control rate is greater than or equal to 40% and less than 60%) | 4 (Grade 4: the growth control rate is greater than or equal to 60% and less than 85%) | 5 (Grade 5: the growth control rate is greater than or equal to 85%) | 5 (Grade 5: the growth control rate is greater than or equal to 85%) | 5 (Grade 5: the growth control rate is greater than or equal to 85%) |
| O=C1C2=C(CCCC2)C(=O)N1c1cc(OCc2nnc(-c3ccc(Cl)cc3)o2)c(Cl)cc1F [Compound B15] | 5 (Grade 5: the growth control rate is greater than or equal to 85%) | 5 (Grade 5: the growth control rate is greater than or equal to 85%) | 5 (Grade 5: the growth control rate is greater than or equal to 85%) | 5 (Grade 5: the growth control rate is greater than or equal to 85%) | 5 (Grade 5: the growth control rate is greater than or equal to 85%) | 5 (Grade 5: the growth control rate is greater than or equal to 85%) | 1 (Grade 1: the growth control rate is greater than or equal to 5% and less than 20%) | 2 (Grade 2: the growth control rate is greater than or equal to 20% and less than 40%) | 3 (Grade 3: the growth control rate is greater than or equal to 40% and less than 60%) | 5 (Grade 5: the growth control rate is greater than or equal to 85%) | 5 (Grade 5: the growth control rate is greater than or equal to 85%) | 5 (Grade 5: the growth control rate is greater than or equal to 85%) | 2 (Grade 2: the growth control rate is greater than or equal to 20% and less than 40%) | 3 (Grade 3: the growth control rate is greater than or equal to 40% and less than 60%) | 4 (Grade 4: the growth control rate is greater than or equal to 60% and less than 85%) | 5 (Grade 5: the growth control rate is greater than or equal to 85%) | 5 (Grade 5: the growth control rate is greater than or equal to 85%) | 5 (Grade 5: the growth control rate is greater than or equal to 85%) |
| O=C1C2=C(CCCC2)C(=O)N1c1cc(OCc2nnc(-c3ccc(Br)cc3)o2)c(Cl)cc1F [Compound B16] | 5 (Grade 5: the growth control rate is greater than or equal to 85%) | 5 (Grade 5: the growth control rate is greater than or equal to 85%) | 5 (Grade 5: the growth control rate is greater than or equal to 85%) | 5 (Grade 5: the growth control rate is greater than or equal to 85%) | 5 (Grade 5: the growth control rate is greater than or equal to 85%) | 5 (Grade 5: the growth control rate is greater than or equal to 85%) | 1 (Grade 1: the growth control rate is greater than or equal to 5% and less than 20%) | 2 (Grade 2: the growth control rate is greater than or equal to 20% and less than 40%) | 3 (Grade 3: the growth control rate is greater than or equal to 40% and less than 60%) | 5 (Grade 5: the growth control rate is greater than or equal to 85%) | 5 (Grade 5: the growth control rate is greater than or equal to 85%) | 5 (Grade 5: the growth control rate is greater than or equal to 85%) | 2 (Grade 2: the growth control rate is greater than or equal to 20% and less than 40%) | 3 (Grade 3: the growth control rate is greater than or equal to 40% and less than 60%) | 4 (Grade 4: the growth control rate is greater than or equal to 60% and less than 85%) | 5 (Grade 5: the growth control rate is greater than or equal to 85%) | 5 (Grade 5: the growth control rate is greater than or equal to 85%) | 5 (Grade 5: the growth control rate is greater than or equal to 85%) |
